Measurements as given in patent US20200048305A1, “GLUTATHIONE-CHOLESTEROL DERIVATIVES AS BRAIN TARGETING AGENTS” (South Dakota Board of Regents, priority 2018, published 2020).

Key:
[1] = Brain-targeting of GUNW-3 DiR micelles, in-vivo whole body fluorescence imaging
[2] = test system: CV-1 cells (monkey kidney cells); assay: In-vitro cytotoxicity by the MTT assay, CV-1 cells; format: cell-based; details: Primates
[3] = test system: NCI-H226 cells (human lung cancer cells); assay: In-vitro cytotoxicity by the MTT assay, NCI-H226 cells; format: cell-based
[4] = Chemical stability of GUNW-3 in methanol-ammonium aqueous solution; format: physicochemical; details: methanol-ammonium aqueous solution (1:1), pH 10.8, 4° C., checked 7 days
Procedure: The stability of GUNW-3 in a methanol-ammonium aqueous solution (1:1) at pH 10.8, the pH GUNW-3 was soluble, was checked continuously for 7 days at 4° C. (FIG. 4). […] However, it started to decompose quickly after 3 days.

| Compound | distribution in liver ([1]; when delivered in micelles) | IC50 [2] [µM] | IC50 [3] [µM] | stability of GUNW-3 [4] | presence in the spinal cord ([1]; mice, lateral image at 1 h) | brain distribution (lateral images) ([1]; mice, tail vein injection, 5 μg DiR, lateral images at 1 h) |
| --- | --- | --- | --- | --- | --- | --- |
| CC(C)CCCC(C)C1CCC2C3CC=C4CC(OCCOCCOC(=O)CCSCC(NC(=O)CCC(N)C(=O)O)C(=O)NCC(=O)O)CC[C@@]4(C)C3CC[C@@]12C (stereo partly drawn) [GUNW-3] | low distribution in liver | 650 | 470 | stable in the first 3 days |  |  |
| CCCCCCCCCCCCCCCCCCN1/C(=C/C=C/C=C/C=C/C2=[N+](CCCCCCCCCCCCCCCCCC)c3ccccc3C2(C)C)C(C)(C)c2ccccc21.[I-] [free DiR] |  |  |  |  | not observed | no significant brain distribution |
